Source: PMC6151488, “Structure, Absolute Configuration, and Antiproliferative Activity of Abietane and Icetexane Diterpenoids from Salvia ballotiflora” (Molecules : A Journal of Synthetic Chemistry and Natural …, 2017)
Where “and” joins values, the source holds several entries; their conditions need not be identical. Identical values can stand only once. Like-named read-outs stand apart in the source and are kept apart here.

Experiments:
[1] = tested on: HeLa cells; parameters: method as in doi:10.1016/j.bjp.2017.01.007; conditions: similar activity when compared to cisplatin; cited from earlier work
[2] = tested on: U251 (human glioblastoma); test: Sulforhodamine B (SRB) cytotoxicity assay, U251; type: cell-based; conditions: for inhibition at 1 µM / inhibition at 50 µM: Homo sapiens, U-251, read-out: Antiproliferative activity (%), U251; for inhibition at 1 µM / Antiproliferative activity (%), U251: primary screening at 1.0 μM; for inhibition at 1 µM / Antiproliferative activity (%), U251 / inhibition at 50 µM: mean n = 2; for SI (selectivity index), U251: quotient of IC50 of COS-7 / IC50 of U251; for inhibition at 50 µM: primary screening at 50.0 μM, NC = No cytotoxic
Description: (§1) The natural products were screened in vitro against the following human cancer cell lines: human mammary adenocarcinoma (MCF-7), human chronic myelogenous leukemia (K562), human glioblastoma (U251), human lung adenocarcinoma (SKLU-1), human colon cancer (HCT-15), human prostate cancer (PC-3), healthy gingival human fibroblasts (FGH), and normal monkey kidney cell lines, which were supplied by the National Cancer Institute (NCI, USA) and American Type Culture Collection (ATTC). The human tumor cytotoxicity was determined using the protein-binding dye sulforhodamine B (SRB) in a microculture assay to measure cell growth, as described in the protocol established by the NCI [30]. The cell lines were cultured in RPMI-1640 medium supplemented with 10% fetal bovine serum, 2 mM L-glutamine, 10,000 units/mL penicillin G sodium, 10,000 μg/mL streptomycin sulfate, and 25 μg/mL amphotericin B (Gibco), and 1% non-essential amino acids (Gibco). They were maintained at 37 °C in a humidified atmosphere with 5% CO2.
(§2) Cytotoxicity after treatment of the tumors cells and normal cells with the test compounds were determined using the protein-binding dye sulforhodamine B (SRB) in a microculture assay to measure cell growth. The cells were removed from the tissue culture flasks by treatment with trypsin, and diluted with fresh media. Of these cell suspensions, 100 μL containing 5000–10,000 cells per well were pipetted into 96-well microtiter plates (Costar) and the material was incubated at 37 °C for 24 h in a 5% CO2 atmosphere. Subsequently, 100 μL of a solution of the compound obtained by diluting the stocks were added to each well. The cultures were exposed to the compound for 48 h. After the incubation period, cells were fixed to the plastic substratum by the addition of 50 μL of cold 50% aqueous trichloroacetic acid. The plates were incubated at 4 °C for 1 h, washed with tap water, and air-dried. The trichloroacetic-acid-fixed cells were stained by the addition of 0.4% SRB. The free SRB solution was then removed by washing with 1% aqueous acetic-acid. The plates were air-dried, and the bound dye was dissolved by the addition of 10 mM unbuffered Tris base (100 μL). The plates were placed on a shaker for 10 min, and the absorption was determined at 515 nm using an ELISA plate reader (Bio-Tex Instruments).

[3] = Scavenging activity on free radical DPPH; conditions: at 100 μM; 30 min, 37 °C
Description: Free radical scavenging activity was measured using an adapted method of Mellors and Tappel. The test was carried out in 96-well microplates. A 50-μL aliquot of the solution of the test compound was mixed with 150 μL of an ethanol solution of DPPH (final concentration 100 μM). The mixture was incubated at 37 °C for 30 min, and the absorbance was then measured at 515 nm using a BioTek microplate reader SYNERGY HT. The percent inhibition was determined by comparison with a 100-μM DPPH ethanol blank solution.

[4] = tested on: SKLU-1 (human lung adenocarcinoma); test: Sulforhodamine B (SRB) cytotoxicity assay, SKLU-1; type: cell-based; conditions: for IC50: SRB assay, 48 h exposure, mean ± SD, read-out: IC50 antiproliferative activity, SKLU-1; for inhibition at 1 µM / inhibition at 50 µM: SK-LU-1, read-out: Antiproliferative activity (%), SKLU-1; for inhibition at 1 µM / Antiproliferative activity (%), SKLU-1: primary screening at 1.0 μM; for inhibition at 1 µM / Antiproliferative activity (%), SKLU-1 / inhibition at 50 µM: mean n = 2; for SI (selectivity index), SKLU-1: quotient of IC50 of COS-7 / IC50 of SKLU-1; for inhibition at 50 µM: primary screening at 50.0 μM, NC = No cytotoxic
Description: as §1, with “CO2. The viability of the cells used in the experiments exceeded 95%, as determined with trypan blue.” for “CO2.”
as §2

[5] = tested on: COS-7 normal monkey kidney; test: Sulforhodamine B (SRB) cytotoxicity assay, COS-7 normal cell line; type: cell-based; conditions: Primates, mean ± SD
Description: as §1, with “CO2. The viability of the cells used in the experiments exceeded 95%, as determined with trypan blue.” for “CO2.”
as §2, with “The plates were incubated at 4 °C for 1 h, washed with tap water, and air-dried. The trichloroacetic-acid-fixed cells were stained by the addition of 0.4% SRB. The free SRB solution was then removed by washing with 1% aqueous acetic-acid. The plates were air-dried, and the bound dye was dissolved by the addition of 10 mM unbuffered Tris base (100 μL).” left out

[6] = tested on: PC-3 (human prostate cancer); test: Sulforhodamine B (SRB) cytotoxicity assay, PC-3; type: cell-based; conditions: for inhibition at 1 µM: primary screening at 1.0 μM, mean n = 2, read-out: Antiproliferative activity (%), PC-3; for inhibition at 50 µM: primary screening at 50.0 μM, mean n = 2, NC = No cytotoxic, read-out: Antiproliferative activity (%), PC-3
Description: as §1, with “CO2. The viability of the cells used in the experiments exceeded 95%, as determined with trypan blue.” for “CO2.”
as §2

[7] = tested on: HCT-15 (human colon cancer); test: Sulforhodamine B (SRB) cytotoxicity assay, HCT-15; type: cell-based; conditions: for inhibition at 1 µM: primary screening at 1.0 μM, mean n = 2, read-out: Antiproliferative activity (%), HCT-15; for inhibition at 50 µM: primary screening at 50.0 μM, mean n = 2, NC = No cytotoxic, read-out: Antiproliferative activity (%), HCT-15
Description: as §1, with “CO2. The viability of the cells used in the experiments exceeded 95%, as determined with trypan blue.” for “CO2.”
as §2

[8] = tested on: MCF-7 (human mammary adenocarcinoma); test: Sulforhodamine B (SRB) cytotoxicity assay, MCF-7; type: cell-based; conditions: for IC50: SRB assay, 48 h exposure, mean ± SD, read-out: IC50 antiproliferative activity, MCF-7
Description: as §1, with “CO2. The viability of the cells used in the experiments exceeded 95%, as determined with trypan blue.” for “CO2.”
as §2

[9] = tested on: K562 (human chronic myelogenous leukemia); test: Sulforhodamine B (SRB) cytotoxicity assay, K562; type: cell-based; conditions: for inhibition at 1 µM / IC50 / inhibition at 50 µM: Homo sapiens, K562; for inhibition at 1 µM: primary screening at 1.0 μM; for inhibition at 1 µM / inhibition at 50 µM / Antiproliferative activity (%), K562: mean n = 2; for inhibition at 1 µM / inhibition at 50 µM: read-out: Antiproliferative activity (%), K562; for IC50: SRB assay, 48 h exposure, mean ± SD, read-out: IC50 antiproliferative activity, K562; for inhibition at 50 µM / Antiproliferative activity (%), K562: primary screening at 50.0 μM, NC = No cytotoxic
Description: as §1, with “CO2. The viability of the cells used in the experiments exceeded 95%, as determined with trypan blue.” for “CO2.”
as §2

[10] = tested on: TPA-induced ear edema; test: TPA-induced ear edema test in mice; type: in vivo; conditions: mice CD-1, 1.0 μmol ear^-1 topical, 4 h after TPA, mean ± SEM; for Inhibition of Edema (%): NA = Non-active
Description: Male CD-1 mice weighing 25–30 g were maintained under standard laboratory conditions in the animal house (temperature 24 ± 2 °C) in a 12/12 h light/dark cycle, fed a laboratory diet and water ad libitum, following the Mexican official norm NOM-062-Z00-1999.
The TPA-induced ear edema assay in mice was performed as reported in reference. A solution of TPA (2.5 μg) in ethanol (10 μL) was applied topically to both faces (5 μL each ear) of the right ear of the mice, 10 min after solutions of the test substances in their respective solvents were applied (10 μL each face). The left ear received ethanol (10 μL) first, followed by 20 μL of the respective solvent. The mice were killed with CO2 four hours later. A 7-mm diameter plug was removed from each ear. The swelling was assessed as the difference in weight between the left and the right ear. Control animals received the correspondent solvent in each case. Edema inhibition (EI %) was calculated by the equation EI % = 100 − (B × 100/A), where A is the edema induced by TPA alone and B is the edema induced by TPA plus the sample. Indomethacin and celecoxib were used as reference compounds.

[11] = tested on: healthy gingival human fibroblasts (FGH); test: Sulforhodamine B (SRB) cytotoxicity assay, FGH primary culture; type: cell-based; conditions: primary screening at 50.0 μM; mean n = 2; NC = No cytotoxic
Description: as §1, with “[…] The viability of the cells used” for “They were maintained at 37 °C”, “the experiments exceeded 95%, as determined” for “a humidified atmosphere”, “trypan blue.” for “5% CO2.”
(§3) Cytotoxicity after treatment of the tumors cells and normal cells with the test compounds were determined using the protein-binding dye sulforhodamine B (SRB) in a microculture assay to measure cell growth. […] The plates were placed on a shaker for 10 min, and the absorption was determined at 515 nm using an ELISA plate reader (Bio-Tex Instruments).

[12] = tested on: six human cancer cell lines (U251, PC-3, K562, HCT-15, MCF-7, SKLU-1) and FGH; test: SRB primary screening, whole panel (result in words); type: cell-based; conditions: primary screening at 50 μM; cancer cell lines other than K562 and MCF-7
Description: The same biological activity was also recently described for icetexane-derivatives isolated from Premna and Amentotaxus species. […] These facts prompted us to assay diterpenoids 3, 4, 6–8 and 10 for antiproliferative activity using six human cancer cell lines (U251, PC-3, K562, HCT-15, MCF-7, and SKLU-1), and a primary culture of healthy gingival human fibroblasts (FGH) at 1.0 or 50.0 μM (when cytotoxicity at 50.0 μM results were too high). […] Overall, the antiproliferative activity determined for 7 was lower than that observed for 6.
as §1, with “CO2. The viability of the cells used in the experiments exceeded 95%, as determined with trypan blue.” for “CO2.”
as §3

[13] = primary screening at 1.0 μM, mean n = 2, NC = No cytotoxic
[14] = Homo sapiens, MCF7, primary screening at 50.0 μM, mean n = 2, NC = No cytotoxic, read-out: Antiproliferative activity (%), MCF-7
[15] = primary screening at 50.0 μM, mean n = 2, NC = No cytotoxic

19-deoxyisoicetexone
IC50 [1]: 9.36 µM

CC(=O)OC1CC2C3(CCCC2(C)C(=O)O3)CC2=C1C(=O)C(C(C)C)=C(O)C2=O (stereo not drawn) [Compound 3, 7α-Acetoxy-6,7-dihydroicetexone]
inhibition at 1 µM [2]: 65.4%
Antiproliferative activity (%), U251 [2]: moderately active
SI (selectivity index), U251 [2]: 1.2
DPPH inhibitory effect (%) [3]: 6.1%
melting point: 110 to 115 °C
IC50 ([4]; Homo sapiens, SK-LU-1, 48 h): 460 ± 50 nM
inhibition at 1 µM ([4]; Homo sapiens): 64.5%
IC50 [4]: 820 ± 60 nM
Antiproliferative activity (%), SKLU-1 [4]: moderately active
SI (selectivity index), SKLU-1 [4]: 2.0
IC50 [5]: 1620 ± 100 nM
inhibition at 1 µM [6]: 34.2%
inhibition at 1 µM [7]: 33.4%
Antiproliferative activity (%), MCF-7 [8, 13]: non-toxic
inhibition at 1 µM [9]: 48.6%
Edema [10]: 9.87 ± 0.44 mg
Inhibition of Edema (%) [10]: 37.4 ± 2.8% and 37.42 ± 2.77 %

CC(C)C1=C(O)C(=O)C2=CC3=CCCC4(C)C(=O)OC(C=C2C1=O)C34 (stereo not shown) [Compound 6, Anastomosine]
inhibition at 1 µM [2]: 98.4%
Antiproliferative activity (%), U251 [2]: very toxic
SI (selectivity index), U251 [2]: 2.3
DPPH inhibitory effect (%) [3]: 8.2%
melting point: 220 to 224 °C
IC50 ([4]; Homo sapiens, SK-LU-1, 48 h): 820 ± 60 nM
inhibition at 1 µM ([4]; Homo sapiens): 100%
IC50 [4]: 460 ± 50 nM
Antiproliferative activity (%), SKLU-1 [4]: very toxic
SI (selectivity index), SKLU-1 [4]: 1.3
IC50 [5]: 610 ± 7 nM
inhibition at 1 µM [6]: 82.3%
inhibition at 1 µM [7]: 85.6%
inhibition at 1 µM ([8]; Homo sapiens, MCF7, primary screening at 1.0 μM, mean n = 2, NC = No cytotoxic, read-out: Antiproliferative activity (%), MCF-7): 51.3%
Antiproliferative activity (%), MCF-7 [8, 13]: moderately toxic
inhibition at 1 µM [9]: 76.4%
Edema [10]: 15.97 ± 0.61 mg
Inhibition of Edema (%) [10]: non-active

CC(C)C1=C(O)C(=O)C2=C(CC3OC(=O)C4(C)CCC=C(C2)C34)C1=O (stereo not shown) [Compound 7, 7,20-Dihydroanastomosine]
inhibition at 50 µM [2]: 10.1%
DPPH inhibitory effect (%) [3]: 6.6%
melting point: 223 to 227 °C
inhibition at 50 µM ([4]; Homo sapiens): 46.5%
Antiproliferative activity (%), FGH [11]: non-toxic
inhibition at 50 µM [6]: 17.8%
inhibition at 50 µM [7]: 26.8%
IC50 ([8]; Homo sapiens, MCF7): 33.2 ± 1.2 µM
inhibition at 50 µM [8, 14]: 62.6%
Antiproliferative activity (%), MCF-7 [8, 15]: moderate toxicity
IC50 [9]: 31.2 ± 1.1 µM
inhibition at 50 µM [9]: 63.2%
Antiproliferative activity (%), K562 [9]: moderate toxicity
Edema [10]: 15.50 ± 0.76 mg
Inhibition of Edema (%) [10]: non-active

CC(C)C1=C(O)C(=O)C2=C(C=C[C@@H]3[C@]4(CCC[C@]3(C)C(=O)O4)C2)C1=O [Compound 8, icetexone]
inhibition at 50 µM [2]: 35.8%
DPPH inhibitory effect (%) [3]: 3.7%
inhibition at 50 µM ([4]; Homo sapiens): 52.9%
Antiproliferative activity (%), FGH [11]: lacked of toxicity
inhibition at 50 µM [6]: 39.6%
inhibition at 50 µM [7]: 29%
IC50 ([8]; Homo sapiens, MCF7): 28.7 ± 1.6 µM
inhibition at 50 µM [8, 14]: 71.6%
Antiproliferative activity (%), MCF-7 [8, 15]: significant antiproliferative activity
Activity against all other tested cancer cell lines (in words) [12]: moderately active
IC50 [9]: 17 ± 1.4 µM
inhibition at 50 µM [9]: 83.1%
Antiproliferative activity (%), K562 [9]: significant antiproliferative activity
